Source: US12357603B2, “Acyl sulfonamides for treating cancer” (Bayer Aktiengesellschaft, priority 2019, dated 2025)
Like-named read-outs stand apart in the source and are kept apart here.

Tests used:
[1] = target: Recombinant human His-tagged Kat6a protein (amino acids 194-810) (Homo sapiens (Human), UniProt Q92794); test: Kat6a activity assay (TR-FRET, acetylation of biotinylated Histone-H4-derived peptide); assay type: biochemical; conditions: 60 mins at 22° C., read-out: KAT6A-DPF/HAT domain IC50 [mol/l] (arithmetic mean)
Chain of Recombinant human His-tagged Kat6a protein (amino acids 194-810) (Q92794 194-810): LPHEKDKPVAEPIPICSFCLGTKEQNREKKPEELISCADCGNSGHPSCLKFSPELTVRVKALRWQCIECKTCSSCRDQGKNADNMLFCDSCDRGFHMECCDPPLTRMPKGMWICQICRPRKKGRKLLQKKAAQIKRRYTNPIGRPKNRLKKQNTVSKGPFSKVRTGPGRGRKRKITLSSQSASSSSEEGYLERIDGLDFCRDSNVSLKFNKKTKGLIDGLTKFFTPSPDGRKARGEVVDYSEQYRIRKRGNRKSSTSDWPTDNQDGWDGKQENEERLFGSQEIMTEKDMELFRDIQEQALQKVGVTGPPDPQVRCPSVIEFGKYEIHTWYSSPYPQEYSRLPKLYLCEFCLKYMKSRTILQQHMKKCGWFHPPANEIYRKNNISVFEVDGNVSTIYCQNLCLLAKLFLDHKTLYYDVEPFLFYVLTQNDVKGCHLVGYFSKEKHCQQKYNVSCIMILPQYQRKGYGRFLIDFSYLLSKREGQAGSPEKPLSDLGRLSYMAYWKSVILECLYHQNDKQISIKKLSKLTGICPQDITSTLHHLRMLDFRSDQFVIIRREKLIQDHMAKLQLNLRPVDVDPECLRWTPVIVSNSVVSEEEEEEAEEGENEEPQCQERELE
In short: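 TR-FRET read-out of H4 K8 acetylation, using anti-acetyl-K8 antibody and streptavidin acceptor, after anacardic acid stop; IC50 from four-parameter regression normalized to DMSO. Reaction: recombinant human Kat6a aa 194-810 (insect-cell derived), 220 nM H4 1-24 peptide, 600 nM acetyl-CoA, pH 8, 22 °C, 60 min, compounds 0.01-20 μM.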

MDA-MB-436 cells = test: Proliferation assay MDA-MB-436, negative control cell line (Alamar Blue, 144 h); assay type: cell-based; conditions: arithmetic mean
In short: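 Viability read as Alamar Blue fluorescence (590 nm, 2 h) after 144 h compound exposure at 37 °C, 5% CO2. Cells seeded at 3000 per well in 2.5% FBS DMEM/Ham's F12, dosed a day later over 2.0×10E-9–2.0×10E-5 M in 9 steps with 0.2% DMSO, in triplicate.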

[2] = test system: ESR1 transcription (luciferase signal in MVLN cells); test: Repression of ESR1 transcription, luciferase reporter in MVLN cells; assay type: cell-based; conditions: inhibition of luciferase signal in MVLN cells, arithmetic mean
In short: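 Luminescence from an ER-driven Vitellogenin A2 element–luciferase reporter was measured after 24 h of treatment of MVLN cells, in duplicate wells. Alamar Blue (2 h, 530/590 nm) served as a cell-density control.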

ZR-75-1 cells = test: Proliferation assay ZR-75-1 (Alamar Blue, 144 h); assay type: cell-based; conditions: arithmetic mean, read-out: ZR75-1 proliferation assay, EC50 [M] (arithmetic mean)
In short: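 Alamar Blue fluorescence (590 nm, 2 h reagent step) measured viability after 144 h compound exposure at 37 °C, 5% CO2. Compounds spanned 2.0×10E-5 to 2.0×10E-9 M in 9 dilutions at 0.2% DMSO, in triplicate, added 24 h after plating 3000 cells/well in RPMI 1640 plus 2.5% FBS.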

[3] = Homo sapiens, MDA-MB-436, 144 h

IC50 [1] [µM]	EC50 (MDA-MB-436 cells; [3]) [µM]	IC50 ([2]; Homo sapiens, MVLN) [µM]	EC50 (MDA-MB-436 cells) [µM]	IC50 [2] [µM]	SMILES	EC50 (ZR-75-1 cells; Homo sapiens, ZR-75-1, 144 h) [M]	EC50 (ZR-75-1 cells) [M]
6.64	> 20	> 20			Cc1ccc2cccc(S(=O)(=O)NC(=O)c3cc4cc(Cl)c(N(C)C)cc4o3)c2n1 [Example 187, 5-Chloro-6-(dimethylamino)-N-((2-methylquinolin-8-yl)sulfonyl)benzofuran-2-carboxamide]	> 2e-05	
10.3	> 20	> 20			CCOc1ccccc1S(=O)(=O)NC(=O)c1cc2cc(Cl)c(N(C)C)cc2o1 [Example 188, 5-Chloro-6-(dimethylamino)-N-((2-ethoxyphenyl)sulfonyl)benzofuran-2-carboxamide]	> 2e-05	
2.44	> 20	6.48			CN(C)c1cc2oc(C(=O)NS(=O)(=O)c3ccccc3-c3ccccc3)cc2cc1Cl [Example 189, N-([1,1′-biphenyl]-2-ylsulfonyl)-5-chloro-6-(dimethylamino)benzofuran-2-carboxamide]	> 2e-05	
1.4	10.4	1.93			Cc1ccc2cccc(S(=O)(=O)NC(=O)c3cc4ccc(N(C)C)c(F)c4o3)c2n1 [Example 190, 6-(Dimethylamino)-7-fluoro-N-((2-methylquinolin-8-yl)sulfonyl)benzofuran-2-carboxamide]	3.3e-06	
4.7	> 20	11.2			CCOc1ccccc1S(=O)(=O)NC(=O)c1cc2ccc(N(C)C)c(F)c2o1 [Example 191, 6-(Dimethylamino)-N-((2-ethoxyphenyl)sulfonyl)-7-fluorobenzofuran-2-carboxamide]	5.64e-06	
2.98	> 20	16.4			CN(C)c1ccc2cc(C(=O)NS(=O)(=O)c3ccccc3-c3ccccc3)oc2c1F [Example 192, N-([1,1′-biphenyl]-2-ylsulfonyl)-6-(dimethylamino)-7-fluorobenzofuran-2-carboxamide]	> 2e-05	
0.0449	> 20	4.09			CN(C)c1cc(C(F)(F)F)c2cc(C(=O)NS(=O)(=O)c3ccccc3)oc2c1 [Example 194, 6-(Dimethylamino)-N-(phenylsulfonyl)-4-(trifluoromethyl)benzofuran-2-carboxamide]	1.12e-06	
0.894	> 20	1.27			Cc1ccc2cccc(S(=O)(=O)NC(=O)c3cc4cc(F)c(N(C)C)cc4o3)c2n1 [Example 197, 6-(Dimethylamino)-5-fluoro-N-((2-methylquinolin-8-yl)sulfonyl)benzofuran-2-carboxamide]	2.84e-06	
4.06	> 20	2.32			CCOc1ccccc1S(=O)(=O)NC(=O)c1cc2cc(F)c(N(C)C)cc2o1 [Example 198, 6-(Dimethylamino)-N-((2-ethoxyphenyl)sulfonyl)-5-fluorobenzofuran-2-carboxamide]	7.2e-06	
2.65	> 20	9.4			CN(C)c1cc2oc(C(=O)NS(=O)(=O)c3ccccc3-c3ccccc3)cc2cc1F [Example 199, N-([1,1′-biphenyl]-2-ylsulfonyl)-6-(dimethylamino)-5-fluorobenzofuran-2-carboxamide]	> 2e-05	
6.74	> 20	> 20			CCOc1ccccc1S(=O)(=O)NC(=O)c1cc2cc(C)c(N(C)C)cc2o1 [Example 200, 6-(Dimethylamino)-N-(2-ethoxybenzene-1-sulfonyl)-5-methyl-1-benzofuran-2-carboxamide]	> 2e-05	
2.59	> 20	5.8			CCOc1ccccc1S(=O)(=O)NC(=O)c1cc2cc(C#N)c(N(C)C)cc2o1 [Example 204, 5-Cyano-6-(dimethylamino)-N-(2-ethoxybenzene-1-sulfonyl)-1-benzofuran-2-carboxamide]	6.4e-06	
0.485	7.61	2.34			COCCN(C)c1ccc2cc(C(=O)NS(=O)(=O)c3cccc4ccc(C)nc34)oc2c1 [Example 205, 6-[(2-Methoxyethyl)(methyl)amino]-N-(2-methylquinoline-8-sulfonyl)-1-benzofuran-2-carboxamide]	2.17e-06	
6.81	> 20	11.8			CN(C)c1cc2oc(C(=O)NS(=O)(=O)c3ccccc3OC3CC3)cc2cc1Br [Example 207, 5-Bromo-N-[2-(cyclopropyloxy)benzene-1-sulfonyl]-6-(dimethylamino)-1-benzofuran-2-carboxamide]	> 2e-05	
0.35	> 20	4.84			CCNc1ccc2cc(C(=O)NS(=O)(=O)c3ccccc3-c3ccccc3)oc2c1 [Example 211, N-([1,1′-biphenyl]-2-sulfonyl)-6-(ethylamino)-1-benzofuran-2-carboxamide]	1.21e-06	
1.13	> 20	9.28			CCNc1ccc2cc(C(=O)NS(=O)(=O)c3ccccc3OCC)oc2c1 [Example 212, N-(2-Ethoxybenzene-1-sulfonyl)-6-(ethylamino)-1-benzofuran-2-carboxamide]	4.19e-06	
0.732	> 20	5.53			COCCN(C)c1ccc2cc(C(=O)NS(=O)(=O)c3ccc(C)cc3-c3ccccc3)oc2c1 [Example 214, 6-[(2-Methoxyethyl)(methyl)amino]-N-(5-methyl[1,1′-biphenyl]-2-sulfonyl)-1-benzofuran-2-carboxamide]	6.14e-06	
2.66	> 20	11.8			CCOc1ccccc1S(=O)(=O)NC(=O)c1cc2ccc(N(C)CCOC)cc2o1 [Example 215, N-(2-Ethoxybenzene-1-sulfonyl)-6-[(2-methoxyethyl)(methyl)amino]-1-benzofuran-2-carboxamide]	1.01e-05	
2.05	> 20	> 20			Cc1ccc2cccc(S(=O)(=O)NC(=O)c3cc4cc(Br)c(N(C)C)cc4o3)c2n1 [Example 216, 5-Bromo-6-(dimethylamino)-N-(2-methylquinoline-8-sulfonyl)-1-benzofuran-2-carboxamide]	> 2e-05	
5.54	> 20	> 20			CN(C)c1cc2oc(C(=O)NS(=O)(=O)c3ccccc3-c3ccccc3)cc2cc1Br [Example 217, N-([1,1′-biphenyl]-2-sulfonyl)-5-bromo-6-(dimethylamino)-1-benzofuran-2-carboxamide]	8.13e-06	
4.73	> 20	7.9			CCOc1ccccc1S(=O)(=O)NC(=O)c1cc2cc(Br)c(N(C)C)cc2o1 [Example 218, 5-Bromo-6-(dimethylamino)-N-(2-ethoxybenzene-1-sulfonyl)-1-benzofuran-2-carboxamide]	8.31e-06	
0.188	> 20	0.716			CCNc1ccc2cc(C(=O)NS(=O)(=O)c3cccc4ccc(C)nc34)oc2c1 [Example 220, 6-(Ethylamino)-N-(2-methylquinoline-8-sulfonyl)-1-benzofuran-2-carboxamide]	8.91e-07	
0.004			> 14.9	0.014	Cc1ccc2cccc(S(=O)(=O)NC(=O)c3cc4c(F)cc(N(C)C)cc4o3)c2n1 [Example 227]		6.85e-08

SMILES	IC50 [1] [µM]	EC50 (MDA-MB-436 cells; [3]) [µM]	IC50 ([2]; Homo sapiens, MVLN) [µM]	EC50 (MDA-MB-436 cells) [µM]	IC50 [2] [µM]	EC50 (ZR-75-1 cells; Homo sapiens, ZR-75-1, 144 h) [M]	EC50 (ZR-75-1 cells) [M]
CN(C)c1ccc2cc(C(=O)NS(=O)(=O)c3ccccc3-c3ccccc3)oc2c1Br [Example 203, N-([1,1′-biphenyl]-2-sulfonyl)-7-bromo-6-(dimethylamino)-1-benzofuran-2-carboxamide]	8.38	> 20	> 20			> 2e-05	
CCCCOc1ccccc1S(=O)(=O)NC(=O)c1cc2ccc(N(C)CCOC)cc2o1 [Example 219, N-(2-butoxybenzene-1-sulfonyl)-6-[(2-methoxyethyl)(methyl)amino]-1-benzofuran-2-carboxamide]	1.28	> 20	4.06			6.05e-06	
